Measured values as given in patent publication US10335417B2, “Thiazideamide derivative and use thereof” (Institute of Pharmacology and Toxicology Academy of …, priority 2015, dated 2019).

Tests used:
[1] = system: chick embryo dorsal root ganglion; experiment: in vitro serum-free culture model of chick embryonic dorsal root ganglion: neurite growth score with NGF; assay type: cell-based; settings: 48 h, score 0-3, average of five ganglions, control 0.33
Method: The neurotrophic activity of the compounds according to the invention can be embodied in multiple in vitro biological models, such as in vitro serum-free culture model of chick embryonic dorsal root ganglion.
Experimental method: in a sterile environment, chick embryo, which had been incubated for 8 d, had the spinal and bilateral ganglion exposed under anatomical lens. Dorsal root ganglions were picked one by one using sharp forceps, and seeded in culture bottles spread with rat tail collagen, at a density of 5-6 ganglions per bottle, and two bottles for each dose. After attachment culture in a 37° C., 5% CO2 incubator for 1 h, serum-free medium DMEM containing nerve growth factor (NGF) (0.15 ng/mL), and the compound according to the invention were added. In the control group, only the medium and the same dose of NGF were added. After culture in the incubator for 48 h, the growth of neurite around dorsal root ganglion was observed under inverted phase contrast microscope, which was scored depending on the length and density of neurite.
Evaluation criteria: 0: no neurite; 1: rare long neurite; 2: relatively long or dense neurite; 3: long and dense neurite.

[2] = system: BCAO-LBP mice (incomplete global cerebral ischemia); experiment: mouse BCAO-LBP model of incomplete global cerebral ischemia: cerebral MDA content and neurological function score; assay type: in vivo, Kunmin mice
Excerpt: In the Example, Kunmin mice were used as experimental subjects, intragastric (i.g.) administration was used, mouse BCAO-LBP (bilateral carotid artery occlusion with low blood pressure) model was used, and by determining neurological function score and the cerebral malondialdehyde (MDA) content in mice, the compounds were investigated for their protective effects on incomplete global cerebral ischemia in mice when administered prophylactically.
2.1.2 Preparation of a drug for intragastric administration: the compound was prepared to a 1.5 mg/ml solution using 0.7% CMC-Na solution.
28 mice, which had adapted to the laboratory environment for 1 week, were evenly grouped depending on body weight. The mice were intragastrically administered with 0.7% CMC-Na or one of the compounds, once/d, for 3 d. The groups were as followed:
Administration group: 12 mice, intragastrically administered at a dose of 0.2 ml/10 g, i.e., the dose of the compound was 30 mg/kg.
2.3.1 Mouse bilateral carotid artery ligation: 1 h after the last administration, the mice were subjected to orbital bloodletting to reduce blood pressure (which was about 30% of the total blood volume of the mice), and then fixed in supine position on the operating table, and cut in the middle of neck. Carotid artery was subjected to blunt dissection, and 2 lines were used in ligation for each side. The time counting started after the ligation with the third line, the carotid artery was cut off between the two lines, and the incision was sewn up. In the Sham-operated group, the carotid artery was only separated without ligation. After the operation, the mice were unfixed quickly, and the mice were observed and recorded for the behaviors within 6 h (scoring depending on the following table using blind method) and the death time. The brains were taken quickly after the mice died, the cerebellums were removed, and the MDA content in the whole cerebrum was determined by thiobarbituric acid (TBA).
The cerebra of mice were taken and weighed, and were prepared into 15% brain homogenate using N.S. 1.2 ml brain homogenate was placed in a 37° C. water bath for 1 h (shaking once every 10 min) and then taken out. 20% trichloroacetic acid 0.6 ml was added, and the mixture was mixed well, and was on standing for 10 min. After centrifugation at 2000 rpm for 10 min, to 1.2 ml supernatant, 0.67% TBA 0.6 ml was added. The mixture was placed in a boiling water bath for 10 min, and was taken out for cooling, and the OD value at a wavelength of 532 nm was determined.
The experimental data was expressed as x±SEM; SPSS 13.0 statistic software was used. Homogeneity or heterogeneity of variance was determined by one-factor analysis of variance. In the case of homogeneity of variance, LSD test was used; in the case of heterogeneity of variance, Dunnett's T3 test was used. Significant difference among different groups was compared, and P<0.05 indicated statistical significance.

in vitro = settings: dog, MDCK-MDR1
Excerpt: MDCK-MDR1 cells were monolayer cells which highly express P-gp transporter after transfection of MDCK (Madin-Darby canine kidney epithelial cell) with MDR1 gene. Due to its density and high expression of efflux protein, the monolayer has similarity compared to blood-brain barrier (BBB) structure and now can be used as one of models for evaluating the ability of passing through BBB. In the invention, MDCK-MDR1 cells were used to study the membrane permeability of the compounds according to the invention, and to primarily evaluate its ability of passing through BBB.
The frozen MDCK-MDR1 cells were quickly thawed in a 37° C. water bath. To the resuscitated cells, DMEM medium containing 10% FBS was added, and the cells were cultured in an incubator at 37° C., 5% CO2, and a relative humidity of 90%. The medium was changed every other day. After fusion of the cells growing for 1-2 days, the cells were digested with 0.25% trypsin-EDTA (0.2%) mixed digestion solution at 37° C., and were sub-cultured at a certain ratio. The cells for use in experiment were those passaged for 40-60 generations.
When the cell fusion degree reached 80%, the cells were digested and then suspended in complete medium, and seeded to Millicell plate at 1×10^6 cells·mL^−1. The medium was changed every other day, and 1 week later, the medium was changed every day. After culturing for 5 days, the resistance value reached a constant value (>200 Ω·cm^2), and the cells could be used in the transport experiment.
After washing with 37° C. HBSS twice, the cells were incubated in a 37° C. culture incubator, wherein Rho-123 was added to the upper wells, and HBSS was added to the bottom wells. The incubation was carried out in a constant temperature shaker, and the solutions from the bottom wells were collected at each time point (0 min, 30 min, 90 min, 120 min), and stored at −20° C. for further use. The amount of Rho-123 permeated to the bottom well was determined by fluorospectrophotometer, wherein the emission wavelength was […], and the excitation wavelength was 530 nm.
The permeability from cavity-surface to basal surface: drug-containing HBSS 0.35 mL was add to Apical (AP), and blank HBSS 1.2 mL was added to Basolateral (BL). The Millicell was placed at 37° C. in a shaker under shaking at 50 r·min^−1, 50 μL sample was collected from the bottom well at 0, 30, 90, 120 min, respectively, and the same volume of blank HBSS was supplemented. 3 wells were set for each concentration, and to the sample, an internal standard solution (50 μL) and ethyl acetate (350 μL) were added precisely. The mixture was mixed homogeneously under shaking, and centrifuged at 12000 rmp for 5 min. The supernatant (300 μL) was volatilized to dryness, and re-dissolved in 50 μL acetonitrile. The 10 μL resultant solution was used for determination.
The permeability from basal surface to cavity surface: the drug is added to Basolateral (BL), and blank HBSS was added to Apical (AP), and the other steps were the same as those of the experiment for determining the permeability from cavity-surface to basal surface.
The apparent permeability coefficient (Papp) of a drug reflects the ability of the drug to pass through cell monolayer and the drug absorption rate and extent. It can be calculated in accordance with the following equation: […]
wherein, Q represents the amount of drug permeated in the t period, A represents cell surface area, and represents the area (0.6 cm^2) of supporting film in this model, and C0 represents an initial concentration. The unit of Papp is expressed as cm·s^−1.
By measurement using LC/MS, the concentration of each sample was quantitated using its standard curve (50 nM-10000 nM).

[3] = compound 100 pM + NGF 0.15 ng/mL

Row | Papp at 120 min (in vitro) [×10⁻⁶ cm/s] | SMILES | Average score (growth of neurites of chick embryo dorsal root ganglion) ([1]; compound 1 pM + NGF 0.15 ng/mL) | Average score (growth of neurites of chick embryo dorsal root ganglion) [1, 3] | Neurologic deficit score ([2]; 30 mg/kg i.g. once/d for 3 d, behaviour within 6 h after ligation, x ± SEM, model group 3.92, sham 0.00) | neurologic deficit score decreased compared to the group administered with Compound 6 ([2]; 30 mg/kg i.g., BCAO-LBP mice) | MDA content ([2]; whole cerebrum, 30 mg/kg i.g. once/d for 3 d, x ± SEM, model group 40.94, sham 33.15) [nmol/g]
1 | 19.2 | CCC(C)[C@H](NC(=O)[C@@H]1CSCCN1S(=O)(=O)c1ccc(C)cc1)C(=O)OC (stereo partly drawn) [Compound 8, (2S,3R)-methyl-3-methyl-2((R)-(4-methylphenyl)sulfonyltetrahydro-1,4-thiazin-3-aminoformyl)valerate] | 1.78 | 2.45 | 1.77 ± 0.28 | about 15% | 34.95 ± 1.55
2 | 34.1 | COC(=O)[C@@H](NC(=O)[C@@H]1CSCCN1S(=O)(=O)c1ccc(C)cc1)C(C)C [Compound 10, (S)-methyl-3-methyl-2((R)-(4-methylphenyl)sulfonyltetrahydro-1,4-thiazin-3-aminoformyl)butyrate] | 1.54 | 2.38 | – | – | –
3 | 22.5 | Cc1ccc(S(=O)(=O)N2CCSC[C@H]2C(=O)N[C@H](C(=O)OC(C)(C)C)C(C)C)cc1 [Compound 12, (S)-tert-butyl-3-methyl-2((R)-(4-methylphenyl)sulfonyltetrahydro-1,4-thiazin-3-aminoformyl)butyrate] | 1.77 | 2.48 | – | – | –
4 | 33.2 | COC(=O)[C@H](NC(=O)[C@@H]1CSCCN1S(=O)(=O)c1ccc(C)cc1)C(C)C [Compound 14, (R)-methyl-3-methyl-2((R)-(4-methylphenyl)sulfonyltetrahydro-1,4-thiazin-3-aminoformyl)butyrate] | 1.44 | 2.35 | – | – | –
5 | 39.7 | COC(=O)[C@H](Cc1ccccc1)NC(=O)[C@@H]1CSCCN1S(=O)(=O)c1ccc(C)cc1 [Compound 16, (S)-methyl-3-phenyl-2((R)-(4-methylphenyl)sulfonyltetrahydro-1,4-thiazin-3-aminoformyl)propionate] | 1.57 | 2.69 | – | – | –

Continued, compound first:

Row | SMILES | Papp at 120 min (in vitro) [×10⁻⁶ cm/s] | Average score (growth of neurites of chick embryo dorsal root ganglion) ([1]; compound 1 pM + NGF 0.15 ng/mL) | Average score (growth of neurites of chick embryo dorsal root ganglion) [1, 3] | Neurologic deficit score ([2]; 30 mg/kg i.g. once/d for 3 d, behaviour within 6 h after ligation, x ± SEM, model group 3.92, sham 0.00) | neurologic deficit score decreased compared to the group administered with Compound 6 ([2]; 30 mg/kg i.g., BCAO-LBP mice) | MDA content ([2]; whole cerebrum, 30 mg/kg i.g. once/d for 3 d, x ± SEM, model group 40.94, sham 33.15) [nmol/g]
6 | CCOC(=O)[C@H](Cc1ccccc1)NC(=O)[C@@H]1CSCCN1S(=O)(=O)c1ccc(C)cc1 [Compound 17, (S)-ethyl-3-phenyl-2((R)-(4-methylphenyl)sulfonyltetrahydro-1,4-thiazin-3-aminoformyl)propionate] | 22.7 | 1.75 | 2.71 | – | – | –
7 | Cc1ccc(S(=O)(=O)N2CCSC[C@H]2C(=O)N[C@@H](Cc2ccccc2)C(=O)OC(C)(C)C)cc1 [Compound 19, (S)-tert-butyl-3-phenyl-2((R)-(4-methylphenyl)sulfonyltetrahydro-1,4-thiazin-3-aminoformyl)propionate] | 42.3 | 1.55 | 2.49 | – | – | –
8 | CCOC(=O)[C@@H](Cc1ccccc1)NC(=O)[C@@H]1CSCCN1S(=O)(=O)c1ccc(C)cc1 [Compound 21, (R)-ethyl-3-phenyl-2((R)-(4-methylphenyl)sulfonyltetrahydro-1,4-thiazin-3-aminoformyl)propionate] | 25.8 | 1.79 | 2.74 | – | – | –
9 | Cc1ccc(S(=O)(=O)N2CCSC[C@H]2C(=O)N[C@H](Cc2ccccc2)C(=O)OC(C)C)cc1 [Compound 24, (R)-isopropyl-3-phenyl-2((R)-(4-methylphenyl)sulfonyltetrahydro-1,4-thiazin-3-aminoformyl)propionate] | 37.8 | 1.89 | 2.80 | – | – | –
10 | Cc1ccc(S(=O)(=O)N2CCSC[C@H]2C(=O)N[C@@H](CCc2ccccc2)C(=O)OC(C)C)cc1 [Compound 25, (S)-isopropyl-4-phenyl-2((R)-(4-methylphenyl)sulfonyltetrahydro-1,4-thiazin-3-aminoformyl)butyrate] | 27.3 | 1.76 | 2.68 | – | – | –
11 | Cc1ccc(S(=O)(=O)N2CCSC[C@H]2C(=O)N[C@H](CCc2ccccc2)C(=O)OC(C)C)cc1 [Compound 26, (R)-isopropyl-4-phenyl-2((R)-(4-methylphenyl)sulfonyltetrahydro-1,4-thiazin-3-aminoformyl)butyrate] | 35.9 | 1.80 | 2.78 | – | – | –
